# Source: patent US20230055457A1, “CELL EXPANSION METHODS FOR PREVENTING CELL SENESCENCE AND PRESERVING THE THERAPEUTIC POTENCY OF HUMAN MESENCHYMAL STEM CELLS” (THE FLORIDA STATE UNIVERSITY RESEARCH FOUNDATION, INC., priority 2020, published 2023)
# “Also recorded” adds a separate entry of the source.
# Legend:
# senescent hMSCs [1] = assay: Basal autophagy by Cyto-ID Green flow cytometry; format: cell-based, human; conditions: senescent hMSCs with NAM treatment
# Protocol: (§1) For autophagy measurement, aliquots of cell suspension were incubated with 20 μM Cyto-ID Green (Enzo Life Sciences, Farmingdale, N.Y.), a fluorescent dye that selectively labels accumulated autophagic vacuoles, at 37° C. for 30 minutes, and analyzed by flow cytometry (BD Biosciences, San Jose, Calif.). For mitophagy measurement, […]
# senescent hMSCs [2] = assay: Intracellular NAD+ and NADH level of hMSCs; format: cell-based, human
# Protocol: (§2) hMSCs at passage 2 were expanded and cultured in complete culture medium(CCM). Cells were grown to 70-80% confluence and then harvested by incubation with 0.25% trypsin/EDTA. Harvested cells were re-plated at a density of 2,000 cells/cm^2 and sub-cultured up to Passage 12 in a standard CO2 incubator. hMSC sat Passage 5 (P5) and passage 12 (P12) were used for experiments. Stem cell properties including senescence, stem cell gene, cell cycle, proliferation rate were determined. Gas chromatography-mass spectrometry (GC-MS) and seahorse flux analyzer were used for characterization of energy metabolism phenotype. Mitochondrial functions were assessed by mitochondrial mass, membrane potential, electron transport complex activity and biogenesis. NAD+/NADH and Sirt-1 and -3 level was also measured in P5 and P12 hMSCs. NAD+ precursor nicotinamide (NAM) was used in CCM to adjust NAD+ level intracellularly.
# [3] = test system: electron transport chain complex I; assay: Mitochondrial complex I (ETC-I) activity; format: cell-based, human; conditions: senescent hMSCs with NAM treatment
# Protocol: hMSCs were centrifuged, re-suspended in DI water, and heated immediately in a boiling water bath for 15 minutes. The mixture was centrifuged and ATP containing supernatant was collected. Upon measurement, 10 μL of ATP solution was mixed with 100 μL of the luciferin-luciferase reagent, and the bioluminescent signal was measured using an Orion Microplate Luminometer (Bad Wildbad, Deutschland) after 15 min incubation at room temperature. Activity of mitochondrial complex I was determined using the Complex I Enzyme Activity Microplate Assay Kit (Abcam, Cambridge, Mass.) according to the kit instructions.
# senescent hMSCs [4] = assay: Mitophagy measurement; format: cell-based, human; conditions: senescent hMSCs with NAM treatment
# Protocol: as §1
# senescent hMSCs [5] = assay: Cellular senescence by SA-β-Gal activity assay; format: cell-based, human; conditions: senescent hMSCs with NAM treatment
# Protocol: Cellular senescence was evaluated by SA-β-Gal activity assay kit (Sigma, St. Louis, Mo.) as described in manufacture instructions.
# senescent hMSCs [6] = assay: Mitochondrial membrane potential (MMP), TMRM flow cytometry; format: cell-based, human; conditions: senescent hMSCs with NAM treatment
# Protocol: For MMP measurement, trypsinized MSCs were washed by centrifugation in warm Hank's Balanced Salt Solution (HBSS). Cell suspension was incubated with tetramethylrhodamine, methyl ester (TMRM) (Molecular Probe, Eugene, Oreg.) at 37° C., washed with HBSS, and analyzed by flow cytometry (BD Biosciences, San Jose, Calif.).
# hMSC = assay: Mitochondrial fitness of hMSCs; format: cell-based, human
# Protocol: as §2
# senescent hMSCs [7] = assay: Colony forming unit-fibroblast (CFU-F) assay; format: cell-based, human; conditions: senescent hMSCs with NAM treatment
# Protocol: Colony forming unit-fibroblast (CFU-F) were determined as following: hMSCs were harvested and re-plated at the density of 15 cells/cm2 on 60 cm2 culture dish and cultured for another 14 days in CCM. Cells were then stained with 20% crystal violet solution in methanol for 15 minutes at room temperature (RT) and washed with phosphate-buffered saline (PBS) wash, the numbers of individual colonies were counted manually.
# [8] = test system: muscle stem cells (muscle-SCs) and hematopoietic stem cells (HSC); conditions: aged muscle-SCs and HSCs, restoring autophagy; cited from earlier work
# [9] = continuous supplement of NAM (1 mM), FIG. 17
structure (smiles),measurement,setting,value
"NC(=O)c1cccnc1 [NAM, nicotinamide]",Basal autophagy level,senescent hMSCs [1],restored; also recorded: increased
same,hMSC cellular NAD+ level,senescent hMSCs [2]; [9],maintains
same,Cellular NAD+ level,"senescent hMSCs [2]; late passage hMSCs with culture-induced senescence, 96 h of NAM treatment",significantly increased; also recorded: potential improvement
same,"boosting intracellular NAD+ level, NAM compared to NMN","senescent hMSCs [2]; stem cells in culture, FIG. 16",better
same,"boosting intracellular NAD+ level, NAM compared with NR","senescent hMSCs [2]; stem cells in culture, FIG. 16",no significant difference
same,ETC-I activity,[3],enhanced; also recorded: increased
same,mitophagy,senescent hMSCs [4],restored; also recorded: increased
same,"hMSC senescence, SA-β-gal activity",senescent hMSCs [5],decreased; also recorded: reduced
same,mitochondrial membrane potential (MMP),senescent hMSCs [6],enhanced; also recorded: increased
same,mitochondrial fitness,hMSC; [9],maintains
same,recovery of mitochondria,"hMSC; senescent hMSCs, supplement of NAM",recovery
same,colony forming ability,senescent hMSCs [7]; in words,improved
same,colony forming ability of hMSCs (CFU-F),senescent hMSCs [7]; control 3 CFU,11 CFU
"NC(=O)c1ccc[n+]([C@@H]2O[C@H](COP(=O)([O-])O)[C@@H](O)[C@H]2O)c1 [NMN, nicotinamide mononucleotide]","boosting intracellular NAD+ level, NAM compared to NMN","senescent hMSCs [2]; stem cells in culture, FIG. 16",NAM is better
"NC(=O)c1ccc[n+]([C@@H]2O[C@H](CO)[C@@H](O)[C@H]2O)c1 [NR, nicotinamide riboside]","boosting NAD+/NADH ratio, NAM compared with NR","senescent hMSCs [2]; stem cells in culture, FIG. 16",no significant difference
same,"boosting intracellular NAD+ level, NAM compared with NR","senescent hMSCs [2]; stem cells in culture, FIG. 16",no significant difference
NCCCCNCCCN [spermidine],stem cell functions in vivo,[8],restored
